# Measurements published in patent US10479789B2, “Pyrido[1,2-A]pyrimidone analog, crystal form thereof, intermediate thereof and preparation method therefor” (Chia Tai Tianqing Pharmaceutical Group Co., Ltd., priority 2015, dated 2019).
# Legend:
# [1] = Stability of crystalline Form IX of Compound 1 in different solvents (XRPD after stirring); assay type: physicochemical; conditions: stirred at 40° C.; for Results (crystalline state by XRPD): 2 days
# Description: Several samples of crystalline Form IX of Compound 1 in a suitable amount were taken, respectively added to 0.3-0.4 mL of a single solvent or a mixed solvent as shown in the following table, and stirred at 40° C. After stirring for 2 days, the samples were centrifuged. Solid in the samples was collected and its crystalline state was detected by XRPD.
# [2] = Solid state stability of crystalline Form IX under high temperature, high humidity and strong light; assay type: physicochemical
# Description: About 10 mg of crystalline Form IX of Compound 1 was weighed and placed on a bottom of a glass sample bottle to form a thin layer. For the samples placed under the conditions of 60° C. and room temperature/92.5% RH, the top of the bottles was covered with aluminum foil, and several holes were made in aluminum foil, which is ensure that the samples were fully exposed to the air in the environment; for the samples placed under strong light (5 Klx), the bottles were sealed with a screw cap. Another sample of 15 mg of crystalline Form IX was taken and placed according to the method as described above for detecting the crystalline form of the sample. The samples placed under different conditions were sampled and detected on day 5 and day 10, and the detection results were compared with the initial detection results on day 0.
# [3] = High temperature 60° C. (opened), day 5
# [4] = High temperature 60° C. (opened), day 5 and day 10
# [5] = High temperature 60° C. (opened), day 10
# [6] = Light 5KIx (closed), day 5 and day 10
# [7] = Room temperature/92.5% RH (opened), day 5
# [8] = Room temperature/92.5% RH (opened), day 5 and day 10
# [9] = Room temperature/92.5% RH (opened), day 10
structure (smiles),measurement,setting,value
COc1ncc(-c2ccc3ncc(OCCN(C)C)c(=O)n3c2)cc1NS(=O)(=O)c1ccc(F)cc1Cl [crystalline Form IX of Compound 1],Appearance (2 days),[1]; acetone,suspension
same,Results (crystalline state by XRPD),[1]; acetone,crystalline
same,Appearance (2 days),[1]; acetone-water (1:2),suspension
same,Results (crystalline state by XRPD),[1]; acetone-water (1:2),crystalline
same,Appearance (2 days),[1]; acetonitrile,suspension
same,Results (crystalline state by XRPD),[1]; acetonitrile,crystalline
same,Appearance (2 days),[1]; ethanol,suspension
same,Results (crystalline state by XRPD),[1]; ethanol,crystalline
same,Appearance (2 days),[1]; ethanol-water (3:1),suspension
same,Results (crystalline state by XRPD),[1]; ethanol-water (3:1),crystalline
same,Appearance (2 days),[1]; ethyl acetate,suspension
same,Results (crystalline state by XRPD),[1]; ethyl acetate,crystalline
same,Appearance (2 days),[1]; isopropanol,suspension
same,Results (crystalline state by XRPD),[1]; isopropanol,crystalline
same,Appearance (2 days),[1]; isopropanol-water (1:1),suspension
same,Results (crystalline state by XRPD),[1]; isopropanol-water (1:1),crystalline
same,Appearance (2 days),[1]; methanol,suspension
same,Results (crystalline state by XRPD),[1]; methanol,crystalline
same,Appearance (2 days),[1]; methanol-water (3:1),suspension
same,Results (crystalline state by XRPD),[1]; methanol-water (3:1),crystalline
same,Appearance (2 days),[1]; tetrahydrofuran,suspension
same,Results (crystalline state by XRPD),[1]; tetrahydrofuran,crystalline
same,Content (%),[2]; [3],100.64%
same,Total impurities (%),[2]; [3],0.32%
same,Appearance,[2]; [4],White
same,Crystalline Form,[2]; [4],crystalline
same,Content (%),[2]; [5],100.55%
same,Total impurities (%),[2]; [5],0.33%
same,Content (%),"[2]; Light 5KIx (closed), day 5",100.43%
same,Total impurities (%),"[2]; Light 5KIx (closed), day 5",0.31%
same,Appearance,[2]; [6],White
same,Crystalline Form,[2]; [6],crystalline
same,Content (%),"[2]; Light 5KIx (closed), day 10",101.10%
same,Total impurities (%),"[2]; Light 5KIx (closed), day 10",0.32%
same,Content (%),[2]; [7],101.05%
same,Total impurities (%),[2]; [7],0.32%
same,Appearance,[2]; [8],White
same,Crystalline Form,[2]; [8],crystalline
same,Content (%),[2]; [9],101.16%
same,Total impurities (%),[2]; [9],0.32%
same,Appearance,[2]; day 0 (initial),White
same,Content (%),[2]; day 0 (initial),101.02%
same,Crystalline Form,[2]; day 0 (initial),crystalline
same,Total impurities (%),[2]; day 0 (initial),0.32%
